Laboratory results taken from the CheMixHub viscosity set.

Assay: xn = mol fraction of the nth substance listed

N#C[S-].[NH4+] + CCOS(=O)(=O)[O-].CC[n+]1ccn(C)c1
viscosity [mPa·s], 101 kPa
Conditions	x1 = 0.0235	x1 = 0.1553	x1 = 0.3025	x1 = 0.4042	x1 = 0.5205	x1 = 0.565	x1 = 0.5997
298.15 K	103.1	150	209.3	231.1	223.9	215.9	208.9
303.15 K	81.26	118	163.3	178.7	173.4	172.5	168.2
308.15 K	65.16	94.31	129.6	140.9	135.3	133.9	133.7
313.15 K	53.09	76.57	104.6	112.9	107.5	106	105.4
318.15 K	43.86	63.03	85.57	91.83	86.87	85.31	84.57
323.15 K	36.68	52.56	70.9	75.56	71.22	69.75	68.92

C=CC[P+](c1ccccc1)(c1ccccc1)c1ccccc1.[Br-] + OCCOCCO
viscosity [mPa·s], 100 kPa
Conditions	293.15 K	298.15 K	303.15 K	308.15 K	313.15 K	318.15 K	323.15 K
x1 = 0.05884	57.19	43.59	33.68	26.69	21.74	17.83	14.79
x1 = 0.09089	70.92	53.42	41.11	32.27	25.8	20.96	17.27
x1 = 0.2	213.2	150.8	109.1	81.11	61.8	47.98	37.87

C#Cc1ccccc1 + CCCCCOC(C)=O
Conditions	viscosity [mPa·s]
298.15 K, 101 kPa, x1 = 0.0691	0.791

BrCCBr + C1CCCCC1
101.33 kPa
Conditions	viscosity [mPa·s]
298.15 K, x1 = 0.1283	0.8597
298.15 K, x1 = 0.2453	0.8556
298.15 K, x1 = 0.3514	0.926
298.15 K, x1 = 0.4599	0.9659
298.15 K, x1 = 0.5537	1.009
298.15 K, x1 = 0.6465	1.105
298.15 K, x1 = 0.7406	1.208
298.15 K, x1 = 0.8327	1.311
298.15 K, x1 = 0.91	1.45
308.15 K, x1 = 0.1562	0.7122
308.15 K, x1 = 0.2398	0.7673
308.15 K, x1 = 0.3629	0.8116
308.15 K, x1 = 0.4545	0.8447
308.15 K, x1 = 0.5559	0.9064
308.15 K, x1 = 0.6741	1.021
308.15 K, x1 = 0.7424	1.055
308.15 K, x1 = 0.8334	1.145
308.15 K, x1 = 0.9281	1.286

COC(=O)CC(=O)OC + c1ccccc1
303.15 K, 101 kPa
Conditions	viscosity [mPa·s]
x1 = 0.0794	0.6916
x1 = 0.1634	0.8208
x1 = 0.2505	0.9519
x1 = 0.3426	1.078
x1 = 0.4381	1.206
x1 = 0.5395	1.341
x1 = 0.6457	1.456
x1 = 0.7579	1.58
x1 = 0.8751	1.696

Brc1ccccc1 + Cc1ccc(C)cc1
101 kPa
Conditions	viscosity [mPa·s]
293.15 K, x1 = 0.1123	0.645
293.15 K, x1 = 0.225	0.695
293.15 K, x1 = 0.3321	0.746
293.15 K, x1 = 0.4327	0.795
293.15 K, x1 = 0.5301	0.845
293.15 K, x1 = 0.6412	0.897
293.15 K, x1 = 0.7553	0.95
293.15 K, x1 = 0.9107	1.018
298.15 K, x1 = 0.1121	0.61
298.15 K, x1 = 0.2263	0.658
298.15 K, x1 = 0.3316	0.701
298.15 K, x1 = 0.4646	0.758
298.15 K, x1 = 0.5298	0.785
298.15 K, x1 = 0.6418	0.835
298.15 K, x1 = 0.755	0.895
298.15 K, x1 = 0.9101	0.955
303.15 K, x1 = 0.1154	0.575
303.15 K, x1 = 0.22	0.615
303.15 K, x1 = 0.3355	0.657
303.15 K, x1 = 0.4366	0.7
303.15 K, x1 = 0.5593	0.75
303.15 K, x1 = 0.6816	0.799
303.15 K, x1 = 0.7723	0.835
303.15 K, x1 = 0.9149	0.891

C[N+](C)(C)CC(=O)[O-] + CC(=O)CCC(=O)O
viscosity [mPa·s]
Conditions	298.15 K	303.15 K	308.15 K	313.15 K	318.15 K	323.15 K
100 kPa, x2 = 0.667	1342	857.3	572.3	393.6	268.9	194.2
101 kPa, x2 = 0.7	–	838	–	–	–	221
101 kPa, x2 = 0.9	117.7	–	–	–	–	–

CCCC#N + CC(C)CO
viscosity [mPa·s], 101.33 kPa
Conditions	x2 = 0.0997	x2 = 0.2	x2 = 0.2986	x2 = 0.3982	x2 = 0.4962	x2 = 0.5918	x2 = 0.7022	x2 = 0.8004	x2 = 0.8991
298.15 K	0.582	0.626	0.69	0.778	0.895	1.051	1.315	1.672	2.273
308.15 K	0.516	0.551	0.6	0.667	0.756	0.874	1.069	1.323	1.742
318.15 K	0.462	0.489	0.528	0.58	0.648	0.737	0.881	1.066	1.363
